Structures can show the parent of a compound that is named as a salt.
Tests used:
[1] = molecular target: T1, Af SidA (Aspergillus fumigatus, UniProt E9QYP0); test: Fluorescence polarization binding assay, Af SidA
[2] = molecular target: KMO (kynurenine 3-monooxygenase) (Pseudomonas fluorescens, UniProt Q84HF5); test: Fluorescence polarization binding assay, KMO
[3] = molecular target: T1, Af SidA; test: Fluorescence polarization displacement assay, Af SidA; assay type: binding
[4] = molecular target: T1, Af SidA; test: Ornithine hydroxylation activity assay and inhibition of Af SidA; assay type: biochemical
[5] = molecular target: T1, Af SidA; test: Fluorescence polarization displacement assay in high throughput screening; assay type: binding; details: 10 μM compound, 2 μM Af SidA, 30 nM chromophore 4, 2% DMSO

T1 sequence (E9QYP0 whole entry): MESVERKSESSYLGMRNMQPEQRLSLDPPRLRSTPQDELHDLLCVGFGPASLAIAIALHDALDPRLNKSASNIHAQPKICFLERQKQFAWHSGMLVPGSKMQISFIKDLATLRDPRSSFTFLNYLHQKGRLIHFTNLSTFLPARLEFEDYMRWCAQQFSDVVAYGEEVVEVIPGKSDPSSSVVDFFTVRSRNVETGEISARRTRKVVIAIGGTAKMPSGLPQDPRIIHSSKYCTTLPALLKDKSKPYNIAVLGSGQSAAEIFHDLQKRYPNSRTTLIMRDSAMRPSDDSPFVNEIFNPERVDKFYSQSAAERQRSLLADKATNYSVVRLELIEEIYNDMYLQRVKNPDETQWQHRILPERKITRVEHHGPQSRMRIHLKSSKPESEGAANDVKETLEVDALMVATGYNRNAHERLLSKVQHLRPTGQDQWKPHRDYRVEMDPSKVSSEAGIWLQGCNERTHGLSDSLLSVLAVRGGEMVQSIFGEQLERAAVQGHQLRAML
Sequence of KMO (kynurenine 3-monooxygenase) (Q84HF5 whole entry): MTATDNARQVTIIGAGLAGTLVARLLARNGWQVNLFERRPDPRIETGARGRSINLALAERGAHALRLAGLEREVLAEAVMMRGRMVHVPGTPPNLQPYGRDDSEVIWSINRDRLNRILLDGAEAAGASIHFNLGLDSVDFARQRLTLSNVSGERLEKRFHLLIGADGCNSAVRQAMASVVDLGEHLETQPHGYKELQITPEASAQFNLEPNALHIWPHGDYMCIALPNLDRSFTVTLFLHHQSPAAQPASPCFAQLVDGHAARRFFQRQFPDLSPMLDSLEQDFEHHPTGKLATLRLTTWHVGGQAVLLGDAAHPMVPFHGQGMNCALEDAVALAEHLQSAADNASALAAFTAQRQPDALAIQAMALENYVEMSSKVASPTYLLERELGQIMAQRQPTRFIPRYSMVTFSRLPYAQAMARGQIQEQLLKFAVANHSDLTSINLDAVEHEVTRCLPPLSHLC

**Q.** `CN(C)c1ccc2c(c1)Oc1cc(N(C)C)ccc1C21OC(=O)c2ccc(C(=O)NCCCCCC(=O)NCCCCCCOP(=O)(O)OP(=O)(O)OCC3OC(n4cnc5c(N)ncnc54)C(O)C3O)cc21` (centres unmarked) [Chromophore 3] was tested. Which Kd [1] did it give?
**A.** The Kd was 9 ± 5 µM.

**Q.** And the Kd [2]?
**A.** Its Kd is 10 ± 2 µM.

**Q.** For `NCCC[C@H](N)C(=O)O` [Ornithine, ornithine], which Kd [3] is on record?
**A.** The Kd was 4000 ± 1000 µM.

**Q.** How did the “decrease in anisotropy (specificity of binding to Af SidA)” value ([3]; addition of up to 1 mM compound, Figure 9S) turn out when `COc1ccc2cc3[n+](cc2c1OC)CCc1cc2c(cc1-3)OCO2` [berberine] was run?
**A.** The value was “did not produce a decrease in anisotropy similar to sanguinarine”.

**Q.** Which results are given for `CN(C)c1ccc2c(c1)Oc1cc(N(C)C)ccc1C21OC(=O)c2cc(C(=O)NCCCCCC(=O)NCCCCCCOP(=O)(O)OP(=O)(O)OCC3OC(n4cnc5c(N)ncnc54)C(O)C3O)ccc21` (centres unmarked) [Chromophore 4]?
**A.** Kd [1]: 2.1 ± 0.2 µM; Kd [2]: 0.6 ± 0.05 µM

**Q.** Which “binding to Af SidA” value ([3]; negative hit, Figure 9S) does the source give for `COc1ccc2cc([C@H](C)C(=O)O)ccc2c1` [naproxen] here?
**A.** The value was “did not bind”.

**Q.** Which results are given for `C[n+]1cc2c3c(ccc2c2ccc4cc5c(cc4c21)OCO5)OCO3` [Sanguinarine, sanguinarine sulfate]?
**A.** IC50 [4]: 500 ± 90 µM; inhibition of Af SidA activity observed ([4]; in the presence of NADPH and ornithine, inhibitor up to 1000 μM): 100%; decrease of the anisotropy value in the screen [5]: 20%

**Q.** Which Kd [3] does the source give for `NCCCC[C@H](N)C(=O)O` [Lysine, lysine] here?
**A.** The Kd was 11000 ± 1000 µM.

Reference: PMC3903666 (Analytical biochemistry, 2012)
